In patent US20240351986A1, “UREA COMPOUND CONTAINING 2-HETEROAROMATIC RING SUBSTITUTION, PREPARATION METHOD THEREFOR AND USE THEREOF” (SHANGHAI INSTITUTE OF MATERIA MEDICA, CHINESE ACADEMY OF …, priority 2021, published 2024):
Read-outs that look alike come from different tables or passages of the source.

What was measured:
Will2 = test: Tumor cell proliferation inhibition in vitro; type: cell-based
CDK6/cyclin D1 = CDK6/cyclin D1 (Homo sapiens, UniProt Q00534); test: CDK6 enzyme activity inhibition; type: biochemical
Description: (§1) CDK1,4,6,7 enzyme (CDK1/cyclin B, CDK4/cyclin D1, CDK6/cyclin D1, CDK7/cyclin H) activity was measured using a 5 μL enzyme system (50 mM HEPES, 10 mM MgCl2, 1 mM EGTA, 2 mM DTT and 0.0100 Tween 20, appropriate enzyme) either. A mixture of 2.5 μL of compound, 2.5 µL of substrate and ATP (final concentration of substrate 50 nM, final concentration of ATP 200 μM) was incubated at room temperature in the dark for 60 minutes. Then 5 μL EDTA stop solution diluted in 1× detection buffer (final concentration 6 mM) was added to each well, then an antibody diluted in 1× detection buffer (final concentration 2 nM) was added to incubate for 1 hour at room temperature in the dark, and then the corresponding enzyme activity inhibition rate or IC50 was calculated after measurement.

[1] = biological target: T1, Recombinant human CDK9/cyclin T1 (Homo sapiens, UniProt P50750); test: CDK9 enzyme inhibitory activity (ADP-Glo kinase assay); type: biochemical
T1 construct: purchased Carna bioscience 04-110

U2932 = test: Tumor cell proliferation inhibition in vitro; type: cell-based; details: Homo sapiens
[2] = Identification of metabolites in mouse plasma; type: in vivo; details: mouse plasma, from metabolite identification
[3] = test system: phosphorylation of Pol II S2 position; test: Western Blot, CDK9 signaling pathway in WSU-DLCL2 cells: Pol II S2 phosphorylation; type: cell-based; details: 24 hours
Description: (§2) Western Blot was used to detect the effect of compounds on the activation of CDK9 signaling pathway in WSU-DLCL2 cells.
(§3) Experimental method: An appropriate amount of WSU-DLCL2 cells were seeded in a 6-well plate. After 24 hours of exposure to the test compound, the cells were collected by centrifugation. A corresponding amount of 1× loading buffer (50 mM Tris-HCl (pH6.8), 2% SDS, 0.1% bromophenol blue, 10% glycerol) was added, the sample was boiled at 100° C. after lysis. The same volume of sample was taken. After SDS-PAGE electrophoresis, the protein on the gel was transferred to a nitrocellulose membrane. The corresponding band was cut according to the size of the protein and blocked TBST containing 5% skimmed milk powder (20 mM Tris-HCl, 150 mM NaCl, 0.1% Tween20, adjust pH to 7.4) for 1 hour, and primary antibody was incubated overnight at 4° C. TBST was used to elute excess primary antibody for 10 minutes each time for three times, the secondary antibody was incubated at room temperature for 1 hour, and then TBST was used to elute excess secondary antibody for 10 minutes each time for three times. Finally, the strips were colored and photographed using a Bio-Rad colorimeter.

CDK7/cyclin H = CDK7/cyclin H (Homo sapiens, UniProt P50613); test: CDK7 enzyme activity inhibition; type: biochemical
Description: as §1

WSU-DLCL2 cells = test: Tumor cell proliferation inhibition in vitro (CCK-8); type: cell-based; details: Homo sapiens, WSUDLCL2, 72 hours
Description: Experimental method: WSU-DLCL2 cells in good condition were seeded in a 96-well plate at 20,000/well. The test compound was gradient diluted with PBS and then added to the wells. After incubating with the cells for 72 hours, 10 μl of CCK-8 reagent was added to each well. After further incubation, the absorbance was measured at 460 nm and the 4-parameter curve fitting of Softmax Pro software was used to calculate the proliferation inhibition IC50 of the test compound.

422 = test: Tumor cell proliferation inhibition in vitro; type: cell-based
[4] = PK parameters in mice after iv and po administration (LC-MS/MS of plasma); type: in vivo; details: for AUC(0-inf): read-out: AUCINF_obs; for MRT inf: read-out: MRTINF_obs
Description: The relevant pharmacokinetic parameters were calculated to examine the oral bioavailability and pharmacokinetic properties of the compound in mice.

Mcl-1 = test: Western Blot, CDK9 signaling pathway in WSU-DLCL2 cells: Mcl-1 expression; type: cell-based; details: 24 hours
Description: as §2, §3

CDK1/cyclin B = CDK1/cyclin B (Homo sapiens, UniProt P06493); test: CDK1 enzyme activity inhibition; type: biochemical
Description: as §1

CDK4/cyclin D1 = CDK4/cyclin D1 (Homo sapiens, UniProt P11802); test: CDK4 enzyme activity inhibition; type: biochemical
Description: as §1

Pfeiffer = test: Tumor cell proliferation inhibition in vitro; type: cell-based
[5] = mouse, plasma, iv, 3 mg/kg, i.v.

T1 sequence (P50750 whole entry): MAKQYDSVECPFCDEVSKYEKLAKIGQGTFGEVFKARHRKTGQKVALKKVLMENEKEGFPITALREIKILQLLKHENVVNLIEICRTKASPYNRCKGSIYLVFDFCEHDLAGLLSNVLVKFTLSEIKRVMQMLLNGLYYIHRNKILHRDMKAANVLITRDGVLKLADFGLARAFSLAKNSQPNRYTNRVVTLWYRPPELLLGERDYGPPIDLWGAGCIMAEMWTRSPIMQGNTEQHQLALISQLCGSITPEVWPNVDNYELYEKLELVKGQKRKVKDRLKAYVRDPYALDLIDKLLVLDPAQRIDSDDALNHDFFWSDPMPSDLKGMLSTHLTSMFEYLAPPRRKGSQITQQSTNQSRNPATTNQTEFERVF
T1 sequence (O60563 whole entry partner): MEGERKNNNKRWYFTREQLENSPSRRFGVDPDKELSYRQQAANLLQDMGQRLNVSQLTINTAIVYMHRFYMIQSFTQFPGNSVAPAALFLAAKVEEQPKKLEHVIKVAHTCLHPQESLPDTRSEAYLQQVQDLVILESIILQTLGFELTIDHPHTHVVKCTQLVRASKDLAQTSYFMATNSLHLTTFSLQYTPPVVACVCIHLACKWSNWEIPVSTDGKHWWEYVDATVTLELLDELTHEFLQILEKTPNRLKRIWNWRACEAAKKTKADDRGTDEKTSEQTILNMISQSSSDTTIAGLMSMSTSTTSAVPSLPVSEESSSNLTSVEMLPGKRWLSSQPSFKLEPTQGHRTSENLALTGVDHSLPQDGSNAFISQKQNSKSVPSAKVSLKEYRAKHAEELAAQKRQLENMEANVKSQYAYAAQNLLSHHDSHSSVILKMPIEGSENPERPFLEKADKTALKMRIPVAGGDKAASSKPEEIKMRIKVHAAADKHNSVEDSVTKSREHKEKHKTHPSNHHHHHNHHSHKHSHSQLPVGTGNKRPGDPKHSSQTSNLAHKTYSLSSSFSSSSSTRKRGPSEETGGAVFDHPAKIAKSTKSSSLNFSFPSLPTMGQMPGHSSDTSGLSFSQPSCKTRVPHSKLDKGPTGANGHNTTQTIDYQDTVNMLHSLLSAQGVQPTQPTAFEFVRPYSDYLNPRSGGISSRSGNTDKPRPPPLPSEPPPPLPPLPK
Chain of CDK6/cyclin D1 (Q00534 whole entry, species assumed): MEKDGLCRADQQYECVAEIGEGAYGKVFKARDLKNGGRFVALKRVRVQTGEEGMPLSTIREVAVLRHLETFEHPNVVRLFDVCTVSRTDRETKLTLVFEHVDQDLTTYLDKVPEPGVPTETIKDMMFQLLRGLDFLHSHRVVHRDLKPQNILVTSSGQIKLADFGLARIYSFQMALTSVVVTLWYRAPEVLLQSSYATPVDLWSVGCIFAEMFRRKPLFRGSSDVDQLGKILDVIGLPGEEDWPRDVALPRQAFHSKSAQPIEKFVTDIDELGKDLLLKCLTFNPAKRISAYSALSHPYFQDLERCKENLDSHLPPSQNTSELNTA
Chain of CDK6/cyclin D1 (P24385 whole entry partner, species assumed): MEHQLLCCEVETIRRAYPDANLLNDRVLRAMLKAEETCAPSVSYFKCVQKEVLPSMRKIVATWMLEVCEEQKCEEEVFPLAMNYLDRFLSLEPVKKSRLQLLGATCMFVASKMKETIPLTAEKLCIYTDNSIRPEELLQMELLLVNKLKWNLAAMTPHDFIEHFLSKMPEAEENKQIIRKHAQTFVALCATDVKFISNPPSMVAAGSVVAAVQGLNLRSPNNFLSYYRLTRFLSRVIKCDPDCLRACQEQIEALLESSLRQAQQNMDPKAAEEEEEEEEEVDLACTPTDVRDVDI
Chain of CDK7/cyclin H (P50613 whole entry, species assumed): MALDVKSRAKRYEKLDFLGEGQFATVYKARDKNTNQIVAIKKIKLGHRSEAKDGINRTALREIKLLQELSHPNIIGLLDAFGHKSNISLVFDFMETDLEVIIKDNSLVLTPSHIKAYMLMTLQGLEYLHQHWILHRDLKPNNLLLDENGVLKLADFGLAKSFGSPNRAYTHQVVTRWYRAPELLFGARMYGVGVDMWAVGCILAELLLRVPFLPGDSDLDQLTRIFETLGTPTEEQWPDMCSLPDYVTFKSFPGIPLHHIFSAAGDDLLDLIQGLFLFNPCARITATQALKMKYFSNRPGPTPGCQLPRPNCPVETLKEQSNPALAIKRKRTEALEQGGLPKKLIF
Chain of CDK7/cyclin H (P51946 whole entry partner, species assumed): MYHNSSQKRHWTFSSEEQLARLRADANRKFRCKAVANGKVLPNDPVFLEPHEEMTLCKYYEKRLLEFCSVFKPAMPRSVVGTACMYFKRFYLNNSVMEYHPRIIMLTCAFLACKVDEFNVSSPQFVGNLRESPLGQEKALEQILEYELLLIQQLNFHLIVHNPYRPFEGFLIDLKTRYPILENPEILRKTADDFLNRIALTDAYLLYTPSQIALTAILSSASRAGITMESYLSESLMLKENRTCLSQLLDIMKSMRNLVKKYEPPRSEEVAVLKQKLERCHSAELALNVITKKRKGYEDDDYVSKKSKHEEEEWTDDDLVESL
Chain of CDK1/cyclin B (P06493 whole entry, species assumed): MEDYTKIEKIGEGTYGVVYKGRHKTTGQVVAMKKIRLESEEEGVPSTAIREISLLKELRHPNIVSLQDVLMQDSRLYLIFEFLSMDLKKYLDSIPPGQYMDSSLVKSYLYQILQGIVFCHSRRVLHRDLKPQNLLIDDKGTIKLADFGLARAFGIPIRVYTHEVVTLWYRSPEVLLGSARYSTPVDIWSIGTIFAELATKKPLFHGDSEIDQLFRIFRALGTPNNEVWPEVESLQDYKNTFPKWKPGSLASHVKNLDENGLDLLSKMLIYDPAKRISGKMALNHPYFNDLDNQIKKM
Chain of CDK1/cyclin B (P14635 whole entry partner, species assumed): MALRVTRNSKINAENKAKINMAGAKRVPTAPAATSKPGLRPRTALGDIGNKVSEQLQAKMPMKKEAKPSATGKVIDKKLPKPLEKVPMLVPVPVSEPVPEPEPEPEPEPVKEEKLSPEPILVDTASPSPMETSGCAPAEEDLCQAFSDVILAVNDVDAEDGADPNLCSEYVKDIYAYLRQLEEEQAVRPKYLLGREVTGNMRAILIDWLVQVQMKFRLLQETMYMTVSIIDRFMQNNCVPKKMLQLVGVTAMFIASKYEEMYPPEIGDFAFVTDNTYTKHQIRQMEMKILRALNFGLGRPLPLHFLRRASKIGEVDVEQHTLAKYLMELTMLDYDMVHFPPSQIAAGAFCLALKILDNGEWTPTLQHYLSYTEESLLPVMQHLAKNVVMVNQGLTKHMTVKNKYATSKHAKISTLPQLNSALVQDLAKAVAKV
Chain of CDK4/cyclin D1 (P11802 whole entry, species assumed): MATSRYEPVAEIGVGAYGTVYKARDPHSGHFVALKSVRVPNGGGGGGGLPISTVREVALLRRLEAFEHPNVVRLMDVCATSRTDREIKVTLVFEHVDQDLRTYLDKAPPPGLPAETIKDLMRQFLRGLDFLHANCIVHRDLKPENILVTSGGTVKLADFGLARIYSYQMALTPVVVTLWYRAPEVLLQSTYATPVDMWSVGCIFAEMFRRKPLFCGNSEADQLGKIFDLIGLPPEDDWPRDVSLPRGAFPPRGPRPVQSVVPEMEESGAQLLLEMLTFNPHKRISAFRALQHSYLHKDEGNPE
Chain of CDK4/cyclin D1 (P24385 whole entry partner, species assumed): as the sequence (P24385 whole entry partner, species assumed) above

Structure (SMILES): CC(=O)N[C@H]1CC[C@H](NC(=O)Nc2cc(-c3cnn4c3CC(C)(C)C4)c(Cl)cn2)CC1 [Example 47, N-((1r,4r)-4-(3-(5-chloro-4-(5,5-dimethyl-5,6-dihydro-4H-pyrrolo[1,2-b]pyrazol-3-yl)pyridin-2-yl)ureido)cyclohexyl)acetamide]
- IC50 (Will2): 2.16 nM
- inhibition at 0.01 µM (CDK6/cyclin D1; compound 10 nM, read-out: CDK6/Cyc D1 inhibition rate % 10 nM): 4.6%
- inhibition at 0.1 µM (CDK6/cyclin D1; compound 100 nM, read-out: CDK6/Cyc D1 inhibition rate % 100 nM): 26.7%
- inhibition at 0.01 µM ([1]; CDK9 enzyme activity, compound 10 nM, average of two independent repeats, read-out: Inhibition rate at different concentrations (%) 10 nM): 71%
- inhibition at 0.1 µM ([1]; CDK9 enzyme activity, compound 100 nM, average of two independent repeats, read-out: Inhibition rate at different concentrations (%) 100 nM): 84%
- IC50 ([1]; Table 2, read-out: CDK9/CycT1 IC50): 5.1 nM
- IC50 (U2932): 0.932 nM
- plasma stability compared with positive compound AZD4573 [2]: higher plasma stability
- phosphorylation of Pol II S2 position ([3]; 50 nM, vs control group): significantly down-regulated
- phosphorylation of Pol II S2 position ([3]; 100 nM): basically completely inhibited
- inhibition at 0.01 µM (CDK7/cyclin H; compound 10 nM, read-out: CDK7/Cyc H inhibition rate % 10 nM): 15%
- inhibition at 0.1 µM (CDK7/cyclin H; compound 100 nM, read-out: CDK7/Cyc H inhibition rate % 100 nM): 50%
- IC50 (WSU-DLCL2 cells): < 4.5 nM
- growth inhibition potency relative to positive control compound AZD4573 (422; 422 cells, IC50 ratio): 20.33 times
- IC50 (422; proliferation): 0.089 nM
- plasma clearance rates compared with AZD4573 [4]: lower
- CL_obs ([4]; i.v.): 102 mL/min/kg
- Vss_obs ([4]; i.v.): 14.318 L/kg
- AUC(0-t) ([4]; mouse, plasma, iv, 3 mg/kg): 480 ng·h/mL
- half-life ([4]; mouse, plasma, iv, 3 mg/kg): 3.84 h
- AUC(0-inf) [4, 5]: 491 ng·h/mL
- MRT inf [4, 5]: 2.34 h
- AUC(0-t) ([4]; mouse, plasma, po): 98.8 ng·h/mL
- Cmax ([4]; mouse, plasma, po): 58.2 ng/mL
- Tmax ([4]; mouse, plasma, po): 0.5 h
- half-life ([4]; mouse, plasma, po, 10 mg/kg): 1.5 h
- AUC(0-inf) ([4]; mouse, plasma, po): 100 ng·h/mL
- MRT inf ([4]; mouse, plasma, po): 1.57 h
- F ([4]; oral bioavailability): 6.18%
- Mcl-1 expression (Mcl-1; 50 nM): significant decrease
- Mcl-1 expression (Mcl-1; 100 nM): almost completely blocked
- inhibition at 0.01 µM (CDK1/cyclin B; compound 10 nM, read-out: CDK1/Cyc B inhibition rate % 10 nM): 5%
- inhibition at 0.1 µM (CDK1/cyclin B; compound 100 nM, read-out: CDK1/Cyc B inhibition rate % 100 nM): 33.4%
- inhibition at 0.01 µM (CDK4/cyclin D1; compound 10 nM, read-out: CDK4/Cyc D1 inhibition rate % 10 nM): 13.6%
- inhibition at 0.1 µM (CDK4/cyclin D1; compound 100 nM, read-out: CDK4/Cyc D1 inhibition rate % 100 nM): 41.1%
- IC50 (Pfeiffer; Homo sapiens, Pfeiffer, proliferation): 0.052 nM
- growth inhibition potency relative to positive control compound AZD4573 (Pfeiffer; Pfeiffer cells, IC50 ratio): 46.67 times
